Consider 91 compounds from PubChem BioAssay AID1645866 (Buhrlage Lab, Dana-Farber Cancer Institute and Novartis …, 2021).

The target in the test is Ubiquitin carboxyl-terminal hydrolase 28 (Homo sapiens) (UniProt Q96RU2). The test is described as follows: Ubiquitin-specific peptidase 28 DUB inhibitors, biochemical concentration-dependence assay, validation of primary screening hits (AID 1645866). The following applies: purified USP28, ubiquitin-rhodamine fluorescence, 30 min.

Active and inactive are the calls of the source.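 Rule for the calls: active = in confirmatory dose-response testing, peak deubiquitinase inhibition of 30% or more; inactive = the rest.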

Chain of Ubiquitin carboxyl-terminal hydrolase 28 (Homo sapiens) (Q96RU2 whole entry, looked up): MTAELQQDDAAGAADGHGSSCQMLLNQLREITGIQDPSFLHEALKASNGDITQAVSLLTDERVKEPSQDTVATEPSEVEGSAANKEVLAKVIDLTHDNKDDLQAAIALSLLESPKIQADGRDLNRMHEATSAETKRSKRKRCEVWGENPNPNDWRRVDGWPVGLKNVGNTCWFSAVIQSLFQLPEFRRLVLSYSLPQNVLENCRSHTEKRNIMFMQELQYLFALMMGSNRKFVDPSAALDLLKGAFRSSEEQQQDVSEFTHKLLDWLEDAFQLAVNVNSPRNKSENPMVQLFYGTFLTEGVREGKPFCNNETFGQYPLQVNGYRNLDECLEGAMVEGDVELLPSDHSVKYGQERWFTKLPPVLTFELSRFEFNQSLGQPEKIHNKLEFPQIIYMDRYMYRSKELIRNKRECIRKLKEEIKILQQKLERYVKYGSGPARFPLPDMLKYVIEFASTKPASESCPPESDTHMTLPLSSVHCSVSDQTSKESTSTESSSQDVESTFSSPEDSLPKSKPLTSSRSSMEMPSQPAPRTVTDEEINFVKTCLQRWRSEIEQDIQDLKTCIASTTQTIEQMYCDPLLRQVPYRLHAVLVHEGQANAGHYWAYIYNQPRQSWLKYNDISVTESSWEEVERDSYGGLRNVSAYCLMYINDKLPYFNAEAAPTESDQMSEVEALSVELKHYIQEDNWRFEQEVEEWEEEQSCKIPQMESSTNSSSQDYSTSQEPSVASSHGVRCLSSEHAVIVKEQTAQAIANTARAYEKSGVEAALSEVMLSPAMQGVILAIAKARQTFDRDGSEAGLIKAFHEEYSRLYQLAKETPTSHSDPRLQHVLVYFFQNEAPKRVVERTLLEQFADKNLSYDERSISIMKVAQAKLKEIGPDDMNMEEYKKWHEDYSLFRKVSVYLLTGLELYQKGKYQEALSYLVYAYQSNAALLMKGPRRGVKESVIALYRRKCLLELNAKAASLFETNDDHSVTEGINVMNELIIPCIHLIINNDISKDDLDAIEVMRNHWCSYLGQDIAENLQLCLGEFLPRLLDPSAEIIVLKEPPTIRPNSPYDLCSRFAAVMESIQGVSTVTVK

Turning to `O=C(Nc1ccc2c(c1)OCO2)C1CCN(Cc2nc3ccccc3s2)CC1`, the half-inhibitory concentration (IC50) is 2.4 µM.

Regarding `Cc1cc(NC(=O)c2cc(-c3cccnc3)n[nH]2)ccc1Br`, the IC50 is 1.03 µM.

For the compound `N#Cc1ccccc1Cn1c(=O)n(Cc2ccco2)c(=O)c2ccccc21`, the half-inhibitory concentration (IC50) was 7.54 µM.

Take `COc1ccc(-c2cc3nc([C@@H](C)NC(=O)c4ccc5c(c4)OCO5)nn3cn2)cc1`: the concentration for half-maximal inhibition (IC50) was 35.1 µM.

As to `CCn1cnc2ccc(C(=O)NC3CC3)cc2c1=O`, the IC50 is 20.2 µM.

Regarding `CS(=O)(=O)N1CCCN(c2nc3cc(Cl)ccc3n3cccc23)CC1`, the IC50 is > 50 µM (inactive).

For the compound `Nc1c(C(=O)NCc2ccc3c(c2)OCO3)nnn1Cc1ccc(Br)cc1F`, the IC50 was 5.37 µM.

`Cc1ccc(-n2c(-c3ccccc3)cn3c4c(=O)[nH]c(=O)n(C)c4nc23)cc1C`: the half-maximal inhibitory concentration (IC50) was 0.641 µM.

For `O=S(=O)(Cc1nnc(-c2ccccc2C(F)(F)F)o1)c1ccc(Cl)cc1`, the IC50 is > 50 µM (inactive).

With `O=C(c1cc(-c2ccc(Cl)cc2)n[nH]1)N1CCN(C(=O)c2ccco2)CC1`, the 50% inhibitory concentration (IC50) is 25.8 µM.

Turning to `Cc1ccccc1NC(=O)Cn1c(N2CCOCC2)nc2cc(C)n(C)c2c1=O`, the IC50 is 20.1 µM.

Consider `COc1ccc(CCNC(=O)c2cc3ccccc3s2)cc1OC`, for which the IC50 was 2.07 µM.

With `COc1ccc(NC(=O)c2nnn(-c3ccccc3C)c2C)cc1OC`, the IC50 is 4.78 µM.

With `Cc1ccc(NCc2cc3c(C(C)(C)C)nn(-c4ccc(Cl)cc4)c3[nH]c2=O)cc1`, the 50% inhibitory concentration (IC50) was 23.6 µM.

Consider `CCC(=O)Nc1ccc2c(c1)nc(CSc1nccc(C)n1)n2CC`, for which the IC50 is 0.365 µM.

Consider `COC(=O)c1ccc2c(=O)n(CCCCCC(=O)NCc3cccc(Cl)c3)c(=O)[nH]c2c1`, for which the IC50 is 2.05 µM.

In the case of `CN1CCN(C(=O)c2ccn(-c3ccc4ccc(-c5cnn(C)c5)cn34)n2)CC1`, the IC50 was > 50 µM (inactive).

Take `NS(=O)(=O)c1ccc(NS(=O)(=O)c2ccc(NC(=O)Nc3ccc(Cl)cc3)cc2)cc1`: the half-maximal inhibitory concentration (IC50) was 3.85 µM.

Consider `COc1ccc(C2SCC(=O)Nc3c2c(=O)[nH]n3C2CCCCC2)cc1` (stereo unspecified), for which the IC50 was 24.6 µM.

Regarding `COc1ccc(CNC(=O)CN2C(=O)CC(c3ccccc3)=Nc3ccccc32)cc1`, the IC50 is 11.9 µM.

On to `O=C(CSc1ncnc2c1oc1ccccc12)Nc1ccc2c(c1)OCCO2`, for which the half-inhibitory concentration (IC50) was 17.1 µM.

As to `CCC(CC)n1[nH]c(=O)c2c1NC(=O)CSC2c1ccc2c(c1)OCO2` (stereo unspecified), the IC50 was 18.6 µM.

Turning to `CC(=O)Nc1ccc(S(=O)(=O)Nc2ccc(Nc3ccc(-n4cccn4)nn3)cc2)cc1`, the IC50 is 32.8 µM.

Consider `Cc1ccc(Nc2nc(O)c(CC(=O)Nc3ccccc3C)s2)cc1C`, for which the half-inhibitory concentration (IC50) was 16.7 µM.

For `COc1ccccc1C(=O)N1CCc2[nH]c3ccc(F)cc3c2C1`, the IC50 was > 50 µM (inactive).

As to `CCOC(=O)c1ccc(NC(=O)Cn2c(=O)n(CC(=O)NCCc3ccc(OC)c(OC)c3)c(=O)c3sccc32)cc1`, the half-maximal inhibitory concentration (IC50) is 1.96 µM.

As to `COc1ccccc1NC(=O)c1cc(-c2ccccn2)nc2ccccc12`, the half-inhibitory concentration (IC50) is 27.4 µM.

On to `COc1ccc(NC(=O)CSc2nc(N)c3c4c(sc3n2)COC(C)(C)C4)cc1`, for which the IC50 was 45.9 µM.

`COc1cccc(NC(=O)C2CCC(CNS(=O)(=O)c3ccc4c(c3)C(C)(C)C(=O)N4C)CC2)c1` (stereo unspecified): the IC50 was 2.6 µM.

Regarding `CC1Cc2ccccc2N1C(=O)Cn1c(=O)cc(O)c2ccccc21` (stereo unspecified), the concentration for half-maximal inhibition (IC50) is 18.8 µM.

Consider `O=c1c2cnc(N3CCCCC3)nc2ccn1CCc1ccccc1`, for which the IC50 is 5.5 µM.

For the compound `Cc1ccc(CSC2=NS(=O)(=O)c3ccccc3N2)cc1`, the IC50 was 16.2 µM.

With `O=C(CCC1CCCCC1)Nc1ccccc1C(=O)N1CCOCC1`, the IC50 was > 50 µM (inactive).

Turning to `Cc1cccc(-n2cnc(C(=O)NCc3ccc(F)cc3)c2)n1`, the half-maximal inhibitory concentration (IC50) was 35.6 µM.

`CC(C)NC(=O)CN1C(=O)CC(C)Sc2ccc(S(=O)(=O)N3CCCCC3)cc21` (stereo unspecified): the IC50 is 41.6 µM.

Consider `Cc1cc(C)n(-c2cccc(C(=O)Nc3ccc4c(c3)CCN4S(C)(=O)=O)c2)n1`, for which the half-maximal inhibitory concentration (IC50) is 3.69 µM.

As to `O=C(Nc1cccc(F)c1)c1ncoc1-c1ccco1`, the IC50 was > 50 µM (inactive).

Regarding `Cc1ccc(Nc2nc(Nc3cccc(F)c3)nc3nccnc23)c(C)c1`, the IC50 is > 50 µM (inactive).

Turning to `COc1ccc(CNC(=O)CCc2nnc3n(Cc4ccccc4Cl)c(=O)c4ccccc4n23)cc1`, the IC50 was 2.18 µM.

For `O=C(Nc1oc2ccccc2c(=O)c1-c1ccc2c(c1)OCO2)C1CCCCC1`, the IC50 was 33.1 µM.

As to `CC(C)c1ccc(NC(=O)c2cc3ncc(Br)cn3n2)cc1`, the half-inhibitory concentration (IC50) was 5.14 µM.

As for `COc1ccc(OC)c(-c2cc(C(=O)Nc3c(C)nn(Cc4ccccc4)c3C)no2)c1`, the half-inhibitory concentration (IC50) was 1.83 µM.

For `N#Cc1cc(C(=O)c2ccc(Cl)cc2)c[nH]1`, the half-inhibitory concentration (IC50) is 41.9 µM.

Turning to `O=C(O)CCCCCN1C(=O)CC(c2ccc(Cl)cc2)CC1=O`, the IC50 was 16.7 µM.

For `COc1ccc(-c2cc(C(=O)NC3CCCCCC3)[nH]n2)cc1S(=O)(=O)N(C)C`, the IC50 is 23.6 µM.

Take `O=C(Nc1ccc2c(c1)OCCO2)C1CCN(C(=O)c2ccccc2)CC1`: the 50% inhibitory concentration (IC50) was 9.44 µM.

As for `O=C(c1ccco1)N1CCC2(CC1)CC1(CO2)Nc2ccccc2-n2cccc21` (stereo unspecified), the IC50 was 34.4 µM.

Turning to `Cn1c(CN2CCCCCC2)nc2cc(NC(=O)c3ccccc3)ccc21`, the IC50 is > 50 µM (inactive).

In the case of `CCCC(=O)Nc1ccc(SCc2nnc(-c3ccccc3)o2)cc1`, the IC50 is 12.7 µM.

For `Fc1cccc(-n2cc(-c3noc(-c4ccccn4)n3)nn2)c1`, the half-maximal inhibitory concentration (IC50) is 23.7 µM.

Regarding `CC(=O)NCc1nc(-c2ccc3c(c2)nc(C)c(=O)n3C2CCCC2)no1`, the IC50 was > 50 µM (inactive).

Regarding `Cc1nc(-c2ccc(C(=O)NCc3ccc(F)cc3)cc2)cs1`, the IC50 was 36.7 µM.

With `COc1ccc(Nc2nc(C(=O)NCc3ccc4c(c3)OCO4)cc3occc23)cc1`, the IC50 was 4.91 µM.

In the case of `O=C(NCc1ccc(F)cc1)N1CCC2(C1)Nc1cccnc1NC2=NCc1ccccc1` (stereo unspecified), the IC50 is > 50 µM (inactive).

As for `COc1ccc(-n2ccc(=O)c(-c3nc(-c4ccccc4F)no3)n2)cc1OC`, the IC50 was > 50 µM (inactive).

With `CN(C)c1cccc(C(=O)Nc2cc(-c3cccnc3)no2)c1`, the half-inhibitory concentration (IC50) is 13.5 µM.

For `O=c1c(S(=O)(=O)c2cc(F)cc(F)c2)c[nH]c2cc(Cl)ccc12`, the IC50 is 20.6 µM.

For the compound `CC(OC(=O)CNC(=O)c1ccc(Br)cc1)C(=O)Nc1ccc2c(c1)OCCO2` (stereo unspecified), the 50% inhibitory concentration (IC50) is 25.8 µM.

Regarding `CCOc1ccc2c(c1)c(=O)c(C(=O)c1ccc(C)cc1)cn2CC(=O)Nc1ccc(OC)c(OC)c1`, the IC50 is 0.686 µM.

As for `COc1ccc(CNC(=O)c2[nH]nc3c2CCc2ccccc2-3)cc1`, the IC50 is 36.1 µM.

Turning to `COc1ccc(C(=O)N2CCCC3(C2)Nc2cccnc2NC3=NC2CCCC2)cn1` (stereo unspecified), the IC50 was > 50 µM (inactive).

On to `Cn1c2ccccc2c2ncn(Cc3ccc(F)cc3)c(=O)c21`, for which the half-inhibitory concentration (IC50) was 6.71 µM.

Regarding `N#Cc1cccc(NC(=O)Cn2cccc(-c3nc(-c4ccccc4)no3)c2=O)c1`, the IC50 is > 50 µM (inactive).

With `O=C(c1cscn1)N1CCC2(CC1)CC1(CO2)Nc2ccccc2-n2cccc21` (stereo unspecified), the IC50 is > 50 µM (inactive).

With `O=C(Nc1ccc2c(c1)OCCO2)C1CCN(C(=O)c2cc(-c3cccnc3)n[nH]2)CC1`, the concentration for half-maximal inhibition (IC50) was 16.2 µM.

Take `CCN1CCCC1CN(Cc1cc2cc(OC)ccc2[nH]c1=O)C(=O)NCc1ccccc1` (stereo unspecified): the IC50 was > 50 µM (inactive).

For `Cc1cc(NC(=O)Cn2c(=O)n(CCCCC(=O)NCc3ccco3)c(=O)c3ccccc32)ccc1Br`, the IC50 is 2.36 µM.

Consider `O=C(NC1CCN(c2nc(-c3cccnc3)nc3ccccc23)CC1)c1cccnc1`, for which the half-inhibitory concentration (IC50) was 15.1 µM.

In the case of `Cc1nc(-c2noc3ccc(C(=O)Nc4cccnc4)cc23)cs1`, the IC50 is 15.7 µM.

Take `O=C(O)Cc1ccc(Nc2nc3ccccc3n3nnnc23)cc1`: the IC50 was > 50 µM (inactive).

As for `Cc1cccc(NC(=O)Cn2c(=O)n(Cc3ccc(F)cc3)c(=O)c3sccc32)c1`, the IC50 is 7 µM.

Turning to `O=C(Nc1ccccc1-c1nc2ccccc2[nH]1)c1sc2ccccc2c1Cl`, the concentration for half-maximal inhibition (IC50) is 2.04 µM.

In the case of `O=C1COc2ccccc2N1Cc1noc(-c2ccccc2)n1`, the IC50 was 4.6 µM.

`Cc1ccccc1-c1nnc(-c2ccc(C(=O)NCc3ccccc3F)cc2)o1`: the 50% inhibitory concentration (IC50) is 12.6 µM.

Consider `COc1cccc(-c2nc3cnccn3c2NCc2ccc3c(c2)OCO3)c1`, for which the IC50 was > 50 µM (inactive).

Regarding `O=c1c2cnc(N3CCOCC3)nc2ccn1CCc1ccccc1`, the half-maximal inhibitory concentration (IC50) was 15.2 µM.

Regarding `Cc1cc(N2CCOCC2)nc2ccc(NC(=O)CCC(=O)Nc3ccc(F)cc3)cc12`, the half-inhibitory concentration (IC50) is 19.7 µM.

Regarding `COc1ccc2ncc3c(-c4ccc(C)cc4)nn(-c4ccc(F)cc4)c3c2c1`, the IC50 was 2.11 µM.

For the compound `O=S(=O)(Nc1ccc(O)cc1)c1ccc2oc3ccc(S(=O)(=O)Nc4ccc(O)cc4)cc3c2c1`, the half-inhibitory concentration (IC50) was 22.3 µM.

As for `Nc1c(-c2nc(-c3ccc4c(c3)OCO4)cs2)nnn1-c1ccccc1`, the IC50 is 30.8 µM.

Consider `Cc1ccc(S(=O)(=O)c2cnc(SCC(=O)Nc3ccc(Cl)cc3)nc2N)cc1C`, for which the IC50 is 39.5 µM.

For the compound `Cc1nn(Cc2ccccc2)c(Cl)c1C(=O)NC1CCCc2ccccc21` (stereo unspecified), the IC50 is > 50 µM (inactive).

As for `CCOC(=O)c1cc2c(ccn2C)n1CC(=O)N1CCC(C)CC1`, the IC50 is > 50 µM (inactive).

With `Cc1ccc(S(=O)(=O)N2CCCCC2)cc1NC(=O)Cc1cccc(F)c1`, the IC50 is 5.05 µM.

On to `COc1ccc(CC(=O)Nc2ccc3nc(N4CCOCC4)cc(C)c3c2)cc1`, for which the IC50 was 26 µM.

`O=C(NCc1ccc(-c2nc3cnccc3o2)cc1)c1cc2ccccc2o1`: the IC50 is 4.43 µM.

For the compound `CC(C)(C)c1cc(C[C@@H]2C[C@H](NC(=O)N3CCOCC3)C2(C)C)no1`, the IC50 is > 50 µM (inactive).

With `COc1cccc(-n2c(=O)[nH]c3c(C(N)=O)nc(-c4ccc(OCc5ccccc5)cc4)nc32)c1`, the IC50 was > 50 µM (inactive).

For the compound `CN1CCC(N(C)S(=O)(=O)c2ccc(NC(=O)c3cccc(OCc4ccccc4)c3)cc2)CC1`, the half-inhibitory concentration (IC50) was 17.2 µM.

For `COc1cccc(N2CCN(C(=O)CCNS(=O)(=O)c3ccc4c(c3)CCC(=O)N4)CC2)c1`, the IC50 is > 50 µM (inactive).

Turning to `O=C(OCc1ccc(F)cc1)c1ccc2ccccc2n1`, the IC50 was 2.55 µM.
